Data reported in US11384060B2, “Amide compounds and use thereof” (ALPHALA CO., LTD., priority 2017, dated 2022).
Like-named read-outs stand apart in the source and are kept apart here.

Legend:
glucagon receptor (GCGR) = target: T1, glucagon receptor (GCGR) (Homo sapiens, UniProt P47871); experiment: I125-glucagon binding assay (competition, GCGR membrane fractions)
T1 construct: expressed in transfected cells; host or cells: CHO-K1 cells overexpressing GCGR (membrane fractions)
Protocol: I^125-Glucagon Binding Assay
The binding affinity of each compound was evaluated by a competition assay with I^125-glucagon. GCGR membrane fractions were obtained from GCGR overexpressed CHO-K1 cells as a stock of 1 mg/ml concentration. To evaluate the IC50 of compounds binding to GCGR, GCGR membrane fractions were treated with compounds with a serial dilution. The membrane fractions were diluted to 7.5 microgram per well in 70 microliter assay buffer contained 50 mM Tris pH 7.4 and 0.5% (w/v) bovine serum albumin and added into 96 wells plate. The membrane fractions were then mixed with 10 microliter diluted compounds. After 5 minutes pre-incubation, 20 microliter I^125 labeled glucagon (Perkin Elmer) was added into each well at the final concentration of 0.0625 nM. The assay mixtures were incubated at 25° C. for 30 minutes and then transferred onto the Millipore MultiScreen GF/B Plate coated with 0.5% (w/v) Polyethyleneimine. The filter plate was washed with wash buffer contained 50 mM Tris pH 7.4 for 2 times, 300 microliter each time. The residual isotope was detected by Hidex CHAMELEON V micro-beta counter and the IC50 value of each compound binding to GCGR was calculated with non-linear regression.

[1] = target: T2, glucagon receptor (GCGR) overexpressed CHO-K1 cells or human primary hepatocytes (Homo sapiens, UniProt P47871); experiment: Glucagon cAMP inhibition assay (Cisbio cAMP Dynamic 2 HTRF); type: cell-based
T2 construct: expressed in transfected cells; host or cells: GCGR overexpressed CHO-K1 cells or human primary hepatocytes (endogenous receptor)
Protocol: Glucagon cAMP Inhibition Assay
Downstream secondary messenger cAMP induced by glucagon was detected by Cisbio cAMP Dynamic 2 kit. Testing compounds were each prepared as a dimethyl sulfoxide (DMSO) solution at the concentration of 10 mM. To evaluate the potency of compounds in inhibiting the cAMP production, glucagon receptor (GCGR) overexpressed CHO-K1 cells or human primary hepatocytes were treated with compounds with a serial dilution. The cells were re-suspended in Hank's Balanced Salt solution (HBSS) contained 0.1% (w/v) bovine serum albumin and 800 nM 3-isobutyl-1-methylxanthine (IBMX) and seeded into low volume, 384 wells white plate. The diluted compounds were then added into the plate for 30 minutes pre-incubation where the final DMSO concentration was 1%. The cells were stimulated with glucagon at the concentration equaled to EC50 (an indicium of the concentration of a drug that gives half-maximal response) for 30 minutes at room temperature. After incubation, lysis buffer contain cAMP antibody and fluorescence acceptor were added into each well for additional 60 minutes incubation. Results were recorded by Molecular Devices SpectraMax Paradigm with the HTRF Detection Cartridges and the IC50 value of each compound in inhibiting the cAMP production was calculated with non-linear regression based on the amount of cAMP production.

[2] = competition with I125-glucagon 0.0625 nM, membrane fractions of GCGR overexpressed CHO-K1 cells
[3] = inhibition of glucagon (EC50 concentration) induced cAMP production

T1 sequence (P47871 26-477): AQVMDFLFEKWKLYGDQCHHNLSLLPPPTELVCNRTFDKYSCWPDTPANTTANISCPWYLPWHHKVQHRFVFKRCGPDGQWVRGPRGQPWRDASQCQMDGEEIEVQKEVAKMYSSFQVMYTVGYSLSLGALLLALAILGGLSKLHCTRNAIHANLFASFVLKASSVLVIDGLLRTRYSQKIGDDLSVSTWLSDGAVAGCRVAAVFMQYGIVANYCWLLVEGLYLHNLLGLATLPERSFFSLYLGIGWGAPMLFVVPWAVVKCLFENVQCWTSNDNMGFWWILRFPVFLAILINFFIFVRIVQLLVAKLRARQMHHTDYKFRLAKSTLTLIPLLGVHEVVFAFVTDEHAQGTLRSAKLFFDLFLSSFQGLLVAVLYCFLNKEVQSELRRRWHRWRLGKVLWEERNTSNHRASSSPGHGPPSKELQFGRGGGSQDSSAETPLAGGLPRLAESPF
T2 sequence (P47871 26-477): as above

For CCC(C)[C@@H](COc1nnc(-c2ccc(C(C)(C)C)cc2)o1)Nc1ccc(C(=O)NCCC(=O)O)cc1 (stereo partly drawn) [Compound 22-9, 3-(4-(((2S)-1-((5-(4-(tert-butyl)phenyl)-1,3,4-oxadiazol-2-yl)oxy)-3-methylpentan-2-yl)amino)benzamido)propanoic Acid], the IC50 (glucagon receptor (GCGR)) was greater than 30000 nM.
With CC(C)[C@@H](COc1ccc(-c2ccc(C(F)(F)F)cc2Cl)nc1)Nc1ccc(C(=O)NCCC(=O)O)cn1 [Compound 11-1, (S)-3-(6-((1-((6-(2-chloro-4-(trifluoromethyl)phenyl)pyridin-3-yl)oxy)-3-methylbutan-2-yl)amino)nicotinamido)propanoic Acid] the IC50 (glucagon receptor (GCGR); [2]) was 1740 nM and the “IC50 cAMP” value [1, 3] was 8.711 µM.
With CC[C@H](C)[C@@H](COc1ccc(-c2ccc(C(F)(F)F)cc2Cl)c(F)c1)Nc1ccc(C(=O)NCCC(=O)O)cc1 [Compound 8-8, 3-(4-(((2S,3S)-1-((2′-chloro-2-fluoro-4′-(trifluoromethyl)-[1,1′-biphenyl]-4-yl)oxy)-3-methylpentan-2-yl)amino)benzamido)propanoic Acid] the IC50 (glucagon receptor (GCGR); [2]) was 277 nM and the “IC50 cAMP” value [1, 3] was 0.5 µM.
In the case of CC(C)COC[C@H](Cc1ccc(-c2ccccc2C(F)(F)F)cc1)Nc1ccc(C(=O)NCCC(=O)O)cc1 [Compound 19-29, (S)-3-(4-((1-isobutoxy-3-(2′-(trifluoromethyl)-[1,1′-biphenyl]-4-yl)propan-2-yl)amino)benzamido)propanoic Acid], the IC50 (glucagon receptor (GCGR)) is reported as 2120 nM and the “IC50 cAMP” value [1] is reported as 0.871 µM.
CC(C)[C@H](Nc1ccc(C(=O)NCCC(=O)O)cc1)c1nnc(-c2ccc(C(C)(C)C)cc2)o1 [Compound 20-4, (S)-3-(4-((1-(5-(4-(tert-butyl)phenyl)-1,3,4-oxadiazol-2-yl)-2-methylpropyl)amino)benzamido)propanoic Acid] was tested, and the IC50 (glucagon receptor (GCGR)) was 1040 nM and the “IC50 cAMP” value [1] was 4.853 µM.
With CC(C)C[C@@H](COc1ccc(-c2ccc(Cl)cc2Cl)nc1)Nc1ccc(C(=O)NCCC(=O)O)cc1 [Compound 10-19, (S)-3-(4-((1-((6-(2,4-dichlorophenyl)pyridin-3-yl)oxy)-4-methylpentan-2-yl)amino)benzamido)propanoic Acid] the IC50 (glucagon receptor (GCGR); [2]) was 301 nM and the “IC50 cAMP” value [1, 3] was 1.064 µM.
In the case of CC[C@H](C)[C@@H](COc1ccc(-c2nnc(C(C)(C)C)o2)cc1)Nc1ccc(C(=O)NCCC(=O)O)cc1 [Compound 1-45, 3-(4-(((2S,3S)-1-(4-(5-(tert-butyl)-1,3,4-oxadiazol-2-yl)phenoxy)-3-methylpentan-2-yl)amino)benzamido)propanoic Acid], the IC50 (glucagon receptor (GCGR); [2]) is reported as 1520 nM and the “IC50 cAMP” value [1, 3] is reported as 11.981 µM.
In the case of CC(C)[C@@H](COc1cc(Cl)c(-c2cc3ccccc3o2)cc1Cl)Nc1ccc(C(=O)NCCC(=O)O)cc1 [Compound 3-14, (S)-3-(4-((1-(4-(benzofuran-2-yl)-2,5-dichlorophenoxy)-3-methylbutan-2-yl)amino)benzamido)propanoic Acid], the IC50 (glucagon receptor (GCGR); [2]) is reported as 58 nM and the “IC50 cAMP” value [1, 3] is reported as 0.1154 µM.
For CC[C@H](C)[C@@H](COc1ccc(-c2nnc(C(C)(C)C)o2)cc1)Nc1ccc(C(=O)NCCC(=O)O)cn1 [Compound 4-4, 3-(6-(((2S,3S)-1-(4-(5-(tert-butyl)-1,3,4-oxadiazol-2-yl)phenoxy)-3-methylpentan-2-yl)amino)nicotinamido)propanoic Acid], the IC50 (glucagon receptor (GCGR); [2]) was 2390 nM and the “IC50 cAMP” value [1, 3] was greater than 30 µM.
CC[C@H](C)[C@@H](COc1nnc(-c2cc3ccccc3o2)o1)Nc1ccc(C(=O)NCCC(=O)O)cc1 [Compound 22-7, 3-(4-(((2S,3 S)-1-((5-(benzofuran-2-yl)-1,3,4-oxadiazol-2-yl)oxy)-3-methylpentan-2-yl)amino)benzamido)propanoic Acid] was tested, and the IC50 (glucagon receptor (GCGR)) was greater than 30000 nM and the “IC50 cAMP” value [1] was greater than 30 µM.
In the case of CC[C@H](C)[C@@H](COc1ccc(-c2ccc(OC(F)(F)F)cc2)cc1)Nc1ccc(C(=O)NCCC(=O)O)cc1 [Compound 1-6, 3-(4-(((2S,3S)-3-methyl-1-((4′-(trifluoromethoxy)-[1,1′-biphenyl]-4-yl)oxy)pentan-2-yl)amino)benzamido)propanoic Acid], the IC50 (glucagon receptor (GCGR); [2]) is reported as 228 nM and the “IC50 cAMP” value [1, 3] is reported as 1.078 µM.
CC[C@H](C)[C@@H](COc1ccc(-c2nnc(-c3ccccc3)o2)c(OC)c1)Nc1ccc(C(=O)NCCC(=O)O)cc1 [Compound 13-12, 3-(4-(((2S,3S)-1-(3-methoxy-4-(5-phenyl-1,3,4-oxadiazol-2-yl)phenoxy)-3-methylpentan-2-yl)amino)benzamido)propanoic Acid] was tested, and the IC50 (glucagon receptor (GCGR); [2]) was 608 nM and the “IC50 cAMP” value [1, 3] was 23.347 µM.
In the case of CC(C)[C@@H](COc1ccc(-c2ccc(Cl)cc2Cl)nc1)Nc1ccc(C(=O)NCCC(=O)O)cc1 [Compound 10-4, (S)-3-(4-((1-((6-(2,4-dichlorophenyl)pyridin-3-yl)oxy)-3-methylbutan-2-yl)amino)benzamido)propanoic Acid], the IC50 (glucagon receptor (GCGR); [2]) is reported as 445 nM and the “IC50 cAMP” value [1, 3] is reported as 4.036 µM.
In the case of CC(C)NC(=O)[C@H](Cc1ccc2ccccc2c1)Nc1ccc(C(=O)NCCC(=O)O)cc1 [Compound 24-14, (S)-3-(4-((1-(isopropylamino)-3-(naphthalen-2-yl)-1-oxopropan-2-yl)amino)benzamido)propanoic Acid], the “IC50 cAMP” value ([1]; uM) is reported as greater than 10 µM.
For CCOC(=O)CCNC(=O)c1ccc(N[C@@H](Cc2ccc3ccccc3c2)C(=O)NC(C)C)cc1 [Compound 24-13, Ethyl (S)-3-(4-((1-(isopropylamino)-3-(naphthalen-2-yl)-1-oxopropan-2-yl)amino)benzamido)propanoate], the “IC50 cAMP” value ([1]; uM) was greater than 10 µM.
With Cc1cc(C)c(-c2ccc(C[C@H](Nc3ccc(C(=O)NCCS(=O)(=O)O)cc3)C(=O)Nc3ccc(C(C)(C)C)cc3)cc2)c(C)c1 [Compound 23-26, (S)-2-(4-((1-((4-(tert-butyl)phenyl)amino)-1-oxo-3-(2′,4′,6′-trimethyl-[1,1′-biphenyl]-4-yl)propan-2-yl)amino)benzamido)ethane-1-sulfonic Acid] the “IC50 cAMP” value [1] was 39.3 µM.
For CC(C)NC(=O)[C@H](Cc1cccc2ccccc12)Nc1ccc(C(=O)NCCC(=O)O)cc1 [Compound 24-12, (S)-3-(4-((1-(isopropylamino)-3-(naphthalen-1-yl)-1-oxopropan-2-yl)amino)benzamido)propanoic Acid], the “IC50 cAMP” value ([1]; uM) was greater than 10 µM.
CC[C@H](C)[C@@H](COc1ccc(-c2nnc(C(C)(C)C)o2)c(OC)c1)Nc1ccc(C(=O)NCCC(=O)O)cc1 [Compound 13-13, 3-(4-(((2S,3S)-1-(4-(5-(tert-butyl)-1,3,4-oxadiazol-2-yl)-3-methoxyphenoxy)-3-methylpentan-2-yl)amino)benzamido)propanoic Acid] was tested, and the IC50 (glucagon receptor (GCGR); [2]) was 883 nM.
CC[C@H](C)[C@@H](COc1ccc(-c2ccc(F)cc2F)cc1)Nc1ccc(C(=O)NCCC(=O)O)cc1 [Compound 1-26] was tested, and the “IC50 cAMP” value [1, 3] was 0.213 µM.
For CCOC(=O)CCNC(=O)c1ccc(N[C@@H](Cc2c[nH]c3ccccc23)C(=O)Nc2ccc(-c3cc4ccccc4o3)cc2)cc1 [Compound 23-27, Ethyl (S)-3-(4-((1-((4-(benzofuran-2-yl)phenyl)amino)-3-(1H-indol-3-yl)-1-oxopropan-2-yl)amino)benzamido)propanoate], the “IC50 cAMP” value [1] was 34.6 µM.
For CCOC(=O)CCNC(=O)c1ccc(N[C@@H](Cc2cccc3ccccc23)C(=O)NC(C)C)cc1 [Compound 24-11, Ethyl (S)-3-(4-((1-(isopropylamino)-3-(naphthalen-1-yl)-1-oxopropan-2-yl)amino)benzamido)propanoate], the “IC50 cAMP” value ([1]; uM) was greater than 10 µM.
CCC(C)[C@@H](COc1nnc(-c2ccc(OC(F)(F)F)cc2)o1)Nc1ccc(C(=O)NCCC(=O)O)cc1 (stereo partly drawn) [Compound 22-8, 3-(4-(((2S)-3-methyl-1-((5-(4-(trifluoromethoxy)phenyl)-1,3,4-oxadiazol-2-yl)oxy)pentan-2-yl)amino)benzamido)propanoic Acid] was tested, and the IC50 (glucagon receptor (GCGR)) was greater than 30000 nM.
